What all share (experiment): ABPP chemical proteomics (LC-MS/MS) in HEK293T cells
Format in all cases: cell-based

For assay [1], the target named is T1, ISOC2 (Homo sapiens, UniProt Q96AB3).
T1 construct: endogenous in cells; host or cells: HEK293T
T1 sequence (Q96AB3 1-205): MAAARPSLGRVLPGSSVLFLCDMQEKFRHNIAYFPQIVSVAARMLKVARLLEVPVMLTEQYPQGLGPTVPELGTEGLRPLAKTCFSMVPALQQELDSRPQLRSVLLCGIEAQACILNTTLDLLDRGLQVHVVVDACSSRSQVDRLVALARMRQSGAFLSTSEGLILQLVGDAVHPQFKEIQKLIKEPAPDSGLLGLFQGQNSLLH
A digest of the protocol:
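Proteome-wide selectivity was profiled by competitive ABPP. Cells received […] and then activity-based probe for 1 h at 37 °C. Lysates were ligated to biotin capture tags, affinity-enriched and analysed by mass spectrometry.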

Assay [2] concerns the target T2, PARK7 (Homo sapiens, UniProt Q99497).
T2 construct: endogenous in cells; host or cells: HEK293T
Particulars: 30 nM, 10 min. The protocol:
(§1) To explore the selectivity of IMP-2587 and IMP-2586 across the whole proteome, we performed quantitative activity-based protein profiling (ABPP) in HEK293T cells following treatment with IMP-2587 or IMP-2586 (Fig. 3a). After ABP incubation, cells were lysed, and probe-labelled proteins were ligated to biotinylated capture reagents.[27] […] USP30 was outcompeted by corresponding parent inhibitors for each ABP (Fig. 5b and d and Tables S3 and S5, ESI ^†), confirming the high potency and rapid engagement of IMP-2587 and IMP-2586 in cells. […] DESI1 and DESI2 are small ubiquitin-related modifier (SUMO) proteases,[3,29–32] and IMP-2587 and IMP-2586 may offer a starting point for future development of DESI ABPs. […]
(§2) d) Live cell probe incubation, lysate click chemistry and precipitation 6-well HEK293T cells were incubated with media containing compounds ABP 2 and ABP 4 at indicated concentrations for 1 h at 37 °C. The cells were washed with PBS and lysed with lysis buffer (50 μL (1% (v/v) Triton X-100, 0.1% (w/v) sodium dodecyl sulfate (SDS), EDTA-free complete protease inhibitor cocktail (1×, Roche) in PBS on ice for 10 min. The lysates were scraped and transferred to corresponding Lo-Bind Eppendorfs. Each lysate was sonicated for 1 minute, and the samples centrifuges at 5,000 x g at 4 °C for 5 minutes to pellet insoluble cellular debris. The supernatant was collected, and protein concentration was determined using the DC Protein Assay (Bio-Rad) as per manufacturer’s instructions, and normalised to lowest concentrated sample (e.g. 1 mg/mL, using lysis buffer). The following “click mixture” was prepared separately, preparing 6 μL for every 100 μL of […]
(§3) Capture reagent (AzRB/AzT for ABP 2, YnT/YnB for ABP 4 10 mM in DMSO, 1 vol; final concentration […]
(§4) CuSO4 (50 mM in water, 2 vol; final concentration in reaction 1 mM)
(§5) TCEP (50 mM in water, 2 vol; final concentration in reaction 1 mM)
(§6) TBTA (10 mM in DMSO, 1 vol; final concentration in reaction 100 µM)
(§7) The click mixture was vortexed and incubated at room temperature for 2 min before 6 μL of the mixture was added to every 100 μL of lysate. The reaction mixtures were shaken at room temperature for 1 h before being quenched with EDTA (500 mM in H2O) to a final concentration of 10 mM.
(§8) Proteins were precipitated by adding H2O (1 vol), MeOH (2 vol) and CHCl3 (0.5 vol), vortexing briefly then centrifuging at 17,000 × g for 5 min. The top H2O/MeOH layer was discarded and the middle layer of protein pellet and lower CHCl3 layer retained. The suspension was washed with MeOH (300 μL), and sonicated to break up the pellet. The proteins were pelleted by centrifugation at 10,000–17000 × g for 5–10 min or until a compact pellet was formed. The protein pellet was washed once more with MeOH (1 mL). The pellet was resuspended by sonicating and completely dissolving in 1% (w/v) SDS in PBS (to 5 mg/mL protein) before being made up to 1 mg/mL protein with PBS.
(§9) The lysate samples (10-20 μg) were mixed with 4× Laemmli sample loading buffer (250 mM Tris -HCl pH 6.8, 30% (v/v) glycerol, 10% (w/v) SDS, 0.05% (w/v) bromophenol blue) supplemented with 20% v/v β-mercaptoethanol (BME) and boiled for 10 min at 95 °C. The resulting protein samples were separated according to the protocol in section 3.2.c. Gel were imaged on a Typhoon imager (GE Healthcare; λEx 532 nm, λEm 575 nm for TAMRA. For protein loading quantification, gels were stained with Coomassie blue staining solution overnight, rinsed with water and imaged on an ImageQuant™ LAS 4000 imager (GE Healthcare). f) Neutravidin biotin enrichment (Affinity pull-down)
(§10) Click chemistry and precipitation steps were carried out as described in section 3.2.d, on at least 400ug of protein per sample. The pellet was resuspended by sonicating and completely dissolving in 1% (w/v) SDS in HEPES 50 mM pH 8.0, before being made up to 1 mg/mL protein with HEPES 50 mM pH 8.0 to […]
(§11) achieve a final concentration of 0.2% SDS. 20uL of each samples was collected as TL (Total lysate) […]
(§12) samples. […]

The target of assay [3] is T3, PGAP1 (Homo sapiens, UniProt Q75T13).
T3 construct: endogenous in cells; host or cells: HEK293T
The protocol:
as §1, §2, §3, §4, §5, §6, §7, §8, §9, §10, §11, §12

Assay [4] addresses T4, PPAT (Homo sapiens, UniProt Q06203).
T4 construct: endogenous in cells; host or cells: HEK293T
As for the experimental part:
as §1, §2, §3, §4, §5, §6, §7, §8, §9, §10, §11, §12

Assay [5] concerns the target T5, ALDH1A1 (Homo sapiens, UniProt P00352).
T5 construct: endogenous in cells; host or cells: HEK293T
The protocol:
as §1, §2, §3, §4, §5, §6, §7, §8, §9, §10, §11, §12

Setting [6] is: IMP-2586 labelling vs DMSO, 30 nM, 10 min, HEK293T (Table S4, Fig.5c).
Where [7] appears, read: IMP-2587 labelling vs DMSO, 30 nM, 10 min, HEK293T (Table S2, Fig.5a).
[8] abbreviates: compound 1 out-competition with IMP-2587 labelling, HEK293T (Table S3, Fig.5b).
Where [9] appears, read: compound 3 out-competition with IMP-2586 labelling, HEK293T (Table S5, Fig.5d).

Molecules are shown by their SMILES.

T5 sequence (P00352 whole entry): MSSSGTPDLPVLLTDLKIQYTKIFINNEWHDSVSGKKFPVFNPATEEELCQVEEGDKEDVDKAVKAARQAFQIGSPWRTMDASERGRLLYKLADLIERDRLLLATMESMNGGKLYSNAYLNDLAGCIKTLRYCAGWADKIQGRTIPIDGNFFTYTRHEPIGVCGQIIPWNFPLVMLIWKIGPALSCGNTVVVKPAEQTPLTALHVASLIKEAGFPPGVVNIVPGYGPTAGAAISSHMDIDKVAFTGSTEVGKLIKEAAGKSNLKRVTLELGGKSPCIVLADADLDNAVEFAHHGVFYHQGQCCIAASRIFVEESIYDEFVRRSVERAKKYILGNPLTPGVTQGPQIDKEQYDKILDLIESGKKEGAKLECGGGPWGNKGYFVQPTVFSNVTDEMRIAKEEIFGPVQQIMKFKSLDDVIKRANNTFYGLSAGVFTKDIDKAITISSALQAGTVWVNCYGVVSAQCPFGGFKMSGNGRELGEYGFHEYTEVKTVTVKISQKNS
T2 sequence (Q99497 whole entry): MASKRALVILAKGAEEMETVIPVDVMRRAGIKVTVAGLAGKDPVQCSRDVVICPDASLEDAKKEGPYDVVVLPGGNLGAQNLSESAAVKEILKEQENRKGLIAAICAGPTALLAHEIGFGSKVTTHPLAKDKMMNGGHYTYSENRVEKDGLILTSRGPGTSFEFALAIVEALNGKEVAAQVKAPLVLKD
T4 sequence (Q06203 12-517): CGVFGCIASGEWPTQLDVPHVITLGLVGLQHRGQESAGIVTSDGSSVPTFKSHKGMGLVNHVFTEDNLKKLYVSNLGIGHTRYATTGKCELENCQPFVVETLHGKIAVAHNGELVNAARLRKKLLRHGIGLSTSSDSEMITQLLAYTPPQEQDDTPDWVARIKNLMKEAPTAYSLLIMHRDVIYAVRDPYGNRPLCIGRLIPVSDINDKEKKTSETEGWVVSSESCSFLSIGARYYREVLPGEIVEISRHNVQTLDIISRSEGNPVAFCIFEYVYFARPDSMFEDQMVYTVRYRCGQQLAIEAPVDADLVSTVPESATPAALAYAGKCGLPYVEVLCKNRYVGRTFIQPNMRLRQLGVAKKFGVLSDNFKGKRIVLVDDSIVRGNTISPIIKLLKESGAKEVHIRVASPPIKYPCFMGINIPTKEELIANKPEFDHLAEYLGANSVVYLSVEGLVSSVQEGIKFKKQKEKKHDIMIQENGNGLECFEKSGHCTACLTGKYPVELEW
T3 sequence (Q75T13 whole entry): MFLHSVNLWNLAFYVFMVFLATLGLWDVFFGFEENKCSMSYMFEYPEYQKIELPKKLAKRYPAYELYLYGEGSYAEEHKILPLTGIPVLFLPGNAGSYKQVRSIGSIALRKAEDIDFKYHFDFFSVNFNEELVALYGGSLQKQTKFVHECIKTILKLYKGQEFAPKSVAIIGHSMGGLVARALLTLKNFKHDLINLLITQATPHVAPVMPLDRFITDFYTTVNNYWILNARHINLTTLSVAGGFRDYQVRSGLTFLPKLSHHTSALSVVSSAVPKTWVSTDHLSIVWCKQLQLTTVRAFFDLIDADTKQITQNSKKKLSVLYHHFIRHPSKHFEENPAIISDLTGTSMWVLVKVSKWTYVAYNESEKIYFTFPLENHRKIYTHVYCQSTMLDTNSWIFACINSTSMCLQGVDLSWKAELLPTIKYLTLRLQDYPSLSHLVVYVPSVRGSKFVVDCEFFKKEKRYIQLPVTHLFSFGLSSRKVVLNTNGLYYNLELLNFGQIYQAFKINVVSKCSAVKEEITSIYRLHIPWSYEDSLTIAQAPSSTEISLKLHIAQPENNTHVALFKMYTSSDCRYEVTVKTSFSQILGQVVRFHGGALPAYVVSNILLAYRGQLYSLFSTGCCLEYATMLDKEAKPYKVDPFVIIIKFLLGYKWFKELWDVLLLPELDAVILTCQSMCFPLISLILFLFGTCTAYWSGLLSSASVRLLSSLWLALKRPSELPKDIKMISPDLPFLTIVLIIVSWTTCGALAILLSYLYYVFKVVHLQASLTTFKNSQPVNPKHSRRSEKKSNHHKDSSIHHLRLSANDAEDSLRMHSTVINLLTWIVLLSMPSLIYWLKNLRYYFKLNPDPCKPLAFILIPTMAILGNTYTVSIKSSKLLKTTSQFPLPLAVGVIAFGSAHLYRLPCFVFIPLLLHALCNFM

Consider `N#CN1CC[C@@H](NC(=O)c2cc(-c3ccccc3Oc3ccc(N=[N+]=[N-])cc3)n[nH]2)C1` [IMP-2586], for which the “Difference (log2 fold change of enrichment)” value in assay [1] (setting [6]) worked out at 3.62; in assay [2] (IMP-2586 labelling vs DMSO, HEK293T (Table S4, Fig.5c)), 1.30; in assay [3] (setting [6]), 2.66; in assay [4] (setting [6]) it was 0.83.

In the case of `C#Cc1cccc(-c2cc(NC(=O)CC3CCN(C#N)C3)on2)c1` (stereo not drawn) [IMP-2587], the “Difference (log2 fold change of enrichment)” value in assay [1] (setting [7]) is listed as 3.87; in assay [5] (setting [7]), 2.95; in assay [2] (IMP-2587 labelling vs DMSO, HEK293T (Table S2, Fig.5a)), 1.32.

In the case of `N#CN1CC[C@H](CC(=O)Nc2cc(-c3cccc(Cl)c3)no2)C1` [compound 1, reference compound], the entries for the “Difference (log2 fold change of enrichment)” value in assay [1] (setting [8]) and in assay [5] (setting [8]) were -3.53 and -2.59, respectively.

Regarding `N#CN1CC[C@@H](NC(=O)c2cc(-c3ccccc3Oc3ccccc3)n[nH]2)C1` [compound 3, reference compound], the “Difference (log2 fold change of enrichment)” value in assay [1] (setting [9]) is -3.08; in assay [3] (setting [9]), -2.38; in assay [4] (setting [9]), -0.44.
